Test results taken from article PMC3627577 (2013).
Starred links: 1 amine or outer side, 2 acyl side, 3 side chain; linkers in the order of their positions; H or OH if unused. Positions of bridges follow the written chain, without caps; N, C: chain ends. Non-standard residues stand in square brackets, D forms with d. Residues, ends and D or L forms follow the SMILES beside them. Chains are numbered I, II in the order given. Actinocin(9to1) = Cc1c2oc3c(C)ccc(C(=O)[*:1])c3nc-2c(C(=O)[*:2])c(N)c1=O; NMeV = CN[C@H](C(=O)O)C(C)C; Sar = CNCC(=O)O

Key:
[1] = tested on: (CGG)16 (DNA, repeat) CGGCGGCGGCGGCGGCGGCGGCGGCGGCGGCGGCGGCGGCGGCGGCGG; assay: UV melting, 260 nm; conditions: 50 mM NaCl; 20 mM Tris-HCl pH 7.3; 12 μM compound, 1 μM DNA
[2] = tested on: GG2 hairpin (DNA, hairpin) ATGCGGCATTGTATGCGGCAT; assay: SPR kinetics, bivalent ligand model; conditions: 50 mM NaCl; 20 mM Tris-HCl pH 7.3; ka/kd; site 1 of 2
[3] = tested on: AT2 hairpin (DNA, hairpin) ATGCATGCATTGTATGCATGCAT; assay: SPR kinetics, bivalent ligand model; conditions: 50 mM NaCl; 20 mM Tris-HCl pH 7.3; ka/kd; site 1 of 2
[4] = tested on: GC2 hairpin (DNA, hairpin) ATGCGCATTGTATGCGCAT; assay: SPR kinetics, bivalent ligand model; conditions: 50 mM NaCl; 20 mM Tris-HCl pH 7.3; ka/kd; site 1 of 2
[5] = tested on: GC1 hairpin (DNA, hairpin) AAAGCTTTTGTAAAGCTTT; assay: SPR kinetics, 1:1 Langmuir; conditions: 50 mM NaCl; 20 mM Tris-HCl pH 7.3; ka/kd

Row | ΔTm [1] [°C] | Ka1 [2] [M⁻¹] | Ka1 [3] [M⁻¹] | Ka1 [4] [M⁻¹] | Ka1 [5] [M⁻¹] | Compound
1 | 10.1 |  |  |  |  | COc1cccc2c1C(=O)c1c(O)c3c(c(O)c1C2=O)C[C@@](O)(C(C)=O)C[C@@H]3O[C@H]1C[C@H](N)[C@H](O)[C@H](C)O1
2 | 11.8 |  |  |  |  | Cc1c2ccncc2c(C)c2c1[nH]c1ccccc12
3 | 23.4 | 3.08e+06 | 1.287e+07 | 6.07e+06 | 2.29e+06 | Cc1c2oc3c(C)ccc(C(=O)N[C@@H]4C(=O)N[C@H](C(C)C)C(=O)N5CCC[C@H]5C(=O)N(C)CC(=O)N(C)[C@@H](C(C)C)C(=O)O[C@@H]4C)c3nc-2c(C(=O)N[C@@H]2C(=O)N[C@H](C(C)C)C(=O)N3CCC[C@H]3C(=O)N(C)CC(=O)N(C)[C@@H](C(C)C)C(=O)O[C@@H]2C)c(N)c1=O (I: T[dV]P[Sar][NMeV] / II: T[dV]P[Sar][NMeV]; ester I:1-I:C, II:1-II:C; linker I:N-II:N via Actinocin(9to1))
